The target of assay [1] is T1, human full-length MKNK1 (Homo sapiens (Human), UniProt Q9BUB5, T344D). In words: MKNK1 kinase assay (MKNK1 TR-FRET assay). It is filed as biochemical. As to conditions: 10 μM ATP final conc.; 15 min preincubation with enzyme. As for the experimental part: MKNK1-inhibitory activity of compounds of the present invention was quantified employing the MKNK1 TR-FRET assay as described in the following paragraphs.
As substrate for the kinase reaction the biotinylated peptide biotin-Ahx-[…] (C-terminus in amide form) was used which can be purchased e.g. form the company Biosyntan (Berlin-Buch, Germany).
(§1) For the assay 50 nL of a 100 fold concentrated solution of the test compound in DMSO was pipetted into a black low volume 384 well microtiter plate (Greiner Bio-One, Frickenhausen, Germany), 2 μL of a solution of MKNK1 in aqueous assay buffer [50 mM HEPES pH 7.5, 5 mM magnesium chloride, 1.0 mM dithiothreitol, 0.005% (v/v) Nonidet-P40 (Sigma)] was added and the mixture was incubated for 15 min at 22° C. to allow pre-binding of the test compounds to the enzyme before the start of the kinase reaction. Then the kinase reaction was started by the addition of 3 μL of a solution of adenosine-tri-phosphate (ATP, 16.7 μM=>final conc. in the 5 μL assay volume is 10 μM) and substrate (0.1 μM=>final conc. in the 5 μL assay volume is 0.06 μM) in assay buffer and the resulting mixture was incubated for a reaction time of 45 min at 22° C. The concentration of MKNK1 was adjusted depending of the activity of the enzyme lot and was chosen appropriate to have the assay in the linear range, typical concentrations were in the range of 0.05 μg/ml. The reaction was stopped by the addition of 5 μL of a solution of TR-FRET detection reagents (5 nM streptavidine-XL665 [Cisbio Bioassays, Codolet, France] and 1 nM anti-ribosomal protein S6 (pSer236)-antibody from Invitrogen [#44921G] and 1 nM LANCE EU-W1024 labeled ProteinG [Perkin-Elmer, product no. AD0071]) in an aqueous EDTA-solution (100 mM EDTA, 0.1% (w/v) bovine serum albumin in 50 mM HEPES pH 7.5).
(§2) The resulting mixture was incubated for 1 h at 22° C. to allow the formation of complex between the phosphorylated biotinylated peptide and the detection reagents. Subsequently the amount of phosphorylated substrate was evaluated by measurement of the resonance energy transfer from the Eu-chelate to the streptavidine-XL. Therefore, the fluorescence emissions at 620 nm and 665 nm after excitation at 350 nm were measured in a TR-FRET reader, e.g. a Rubystar (BMG Labtechnologies, Offenburg, Germany) or a Viewlux (Perkin-Elmer). The ratio of the emissions at 665 nm and at […] was taken as the measure for the amount of phosphorylated substrate. The data were normalised (enzyme reaction without inhibitor=0% inhibition, all other assay components but no enzyme=100% inhibition).
Background: TR-FRET usually uses a lanthanide donor and a delayed reading to cut background.

Assay [2] concerns the target T1, human full-length MKNK1. In words: MKNK1 kinase high ATP assay (TR-FRET-based). It counts as biochemical. The note with it: 2 mM ATP final conc.; 15 min preincubation with enzyme. The protocol:
MKNK1 Kinase High ATP Assay
MKNK1-inhibitory activity at high ATP of compounds of the present invention after their preincubation with MKNK1 was quantified employing the TR-FRET-based MKNK1 high ATP assay as described in the following paragraphs.
As substrate for the kinase reaction the biotinylated peptide biotin-Ahx-[…] (C-terminus in amide form) was used, which can be purchased e.g. from the company Biosyntan (Berlin-Buch, Germany).
as §1, with “3.3 mM=>final” for “16.7 μM=>final”, “2 mM)” for “10 μM)”, “30” for “45”, “0.003 μg/mL.” for “0.05 μg/ml.”
as §2

Counter-ions that a name gives are not always drawn.

T1 sequence (Q9BUB5 other isoform, or with tags, fused parts or gaps T344D): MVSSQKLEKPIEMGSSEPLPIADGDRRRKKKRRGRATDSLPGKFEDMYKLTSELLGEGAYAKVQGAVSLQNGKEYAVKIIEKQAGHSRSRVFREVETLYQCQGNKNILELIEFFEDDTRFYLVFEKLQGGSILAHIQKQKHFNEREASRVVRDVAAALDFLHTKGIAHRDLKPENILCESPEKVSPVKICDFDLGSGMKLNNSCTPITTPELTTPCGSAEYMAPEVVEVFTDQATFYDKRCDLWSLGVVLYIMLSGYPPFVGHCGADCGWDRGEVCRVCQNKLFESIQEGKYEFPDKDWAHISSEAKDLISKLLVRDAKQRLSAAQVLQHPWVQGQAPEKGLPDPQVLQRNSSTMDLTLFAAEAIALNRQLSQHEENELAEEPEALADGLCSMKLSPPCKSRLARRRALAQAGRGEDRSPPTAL

In general, IC50 refers to the point on the concentration scale where inhibition reaches its midpoint. A higher IC50 goes with a need for much substance. For the compound `COc1ccc2oc(-c3cnc4ccc(O[C@H]5C[C@H](N)C5)nn34)cc2c1` [Example 38, trans-3-{[3-(5-Methoxy-1-benzofuran-2-yl)imidazo[1,2-b]pyridazin-6-yl]oxy}-cyclobutanamine], the values for the IC50 against human full-length MKNK1 [1] and on human full-length MKNK1 [2] were 3 nM and 6 nM, respectively.
The like results for `N[C@H]1CCC[C@H]1Oc1ccc2ncc(-c3cc4ccccc4o3)n2n1` [Example 25, (1S,2R)-2-{[3-(1-Benzofuran-2-yl)imidazo[1,2-b]pyridazin-6-yl]oxy}cyclopentanamine salt with formic acid] were, in that order, 7 nM and 22 nM.
For the compound `N[C@H]1C[C@H](Oc2ccc3ncc(-c4cc5ccccc5o4)n3n2)C1` [Example 2, trans-3-{[3-(1-Benzofuran-2-yl)imidazo[1,2-b]pyridazin-6-yl]oxy}cyclobutanamine], the IC50 against human full-length MKNK1 [1] was determined as 5 nM; on human full-length MKNK1 [2], 6 nM.
The like results for `COc1ccc2oc(-c3cnc4ccc(OCCCN)nn34)cc2c1` [Example 9, 3-{[3-(5-Methoxy-1-benzofuran-2-yl)imidazo[1,2-b]pyridazin-6-yl]oxy}propan-1-amine] were, in that order, 7 nM and 22 nM.
The like results for `NCCOc1ccc2ncc(-c3cc4ccccc4o3)n2n1` [Example 12, 2-{[3-(1-Benzofuran-2-yl)imidazo[1,2-b]pyridazin-6-yl]oxy}ethanamine] were, in that order, 10 nM and 27 nM.
The like results for `NCC(Cc1ccccc1)Oc1ccc2ncc(-c3cc4ccccc4o3)n2n1` (stereo not shown) [Example 26, 2-{[3-(1-Benzofuran-2-yl)imidazo[1,2-b]pyridazin-6-yl]oxy}-3-phenylpropan-1-amine salt with formic acid] were, in that order, 15 nM and 25 nM.
In the case of `N[C@H](COc1ccc2ncc(-c3cc4ccccc4o3)n2n1)c1ccccc1` [Example 17, (1S)-2-{[3-(1-Benzofuran-2-yl)imidazo[1,2-b]pyridazin-6-yl]oxy}-1-phenylethanamine], the IC50 against human full-length MKNK1 [1] stood at 6 nM; on human full-length MKNK1 [2], 10 nM.
The like results for `NCC(Oc1ccc2ncc(-c3cc4ccccc4o3)n2n1)C1CC1` (stereo not shown) [Example 30, 2-{[3-(1-Benzofuran-2-yl)imidazo[1,2-b]pyridazin-6-yl]oxy}-2-cyclopropylethanamine] were, in that order, 41 nM and 75 nM.
The like results for `COc1cccc2oc(-c3cnc4ccc(OCCN)nn34)cc12` [Example 5, 2-{[3-(4-Methoxy-1-benzofuran-2-yl)imidazo[1,2-b]pyridazin-6-yl]oxy}ethanamine] were, in that order, 6 nM and 18 nM.
The like results for `NCCCOc1ccc2ncc(-c3cc4ccccc4o3)n2n1` [Example 11, 3-{[3-(1-Benzofuran-2-yl)imidazo[1,2-b]pyridazin-6-yl]oxy}propan-1-amine] were, in that order, 8 nM and 24 nM.
As for `COc1ccc2oc(-c3cnc4ccc(OCCN)nn34)cc2c1` [Example 6, 2-{[3-(5-Methoxy-1-benzofuran-2-yl)imidazo[1,2-b]pyridazin-6-yl]oxy}ethanamine], the IC50 was found to be 6 nM against human full-length MKNK1 [1] and 13 nM against human full-length MKNK1 [2].

The values are drawn from US9499547B2 (BAYER INTELLECTUAL PROPERTY GMBH, priority 2011, dated 2016).
